Experiments:
calvarial defects = experiment: Calvarial defect implantation of polypeptide-modified GelMA, H&E and Goldner's trichrome staining; assay type: in vivo, SD male rats; conditions: GelMA scaffold with peptide 0.1 mg/mL, 5 mm calvarial defect, 4 weeks post-implantation
Procedure: • 2.1 GelMA Preparation: gelatin was fully dissolved in phosphate-buffered saline (PBS) at 60° C. with a concentration of 10% (w/v). […] Double PBS was added to the mixture to stop the reaction. The solution was dialyzed against distilled water using 12-14 kDa dialysis tubing for 1 week. The obtained GelMA solution was frozen at −20° C. overnight and lyophilized for 72 h to get sponge GelMA. • 2.2 Polypeptide modification: 2 g lyophilized GelMA was dissolved in 10 mL PBS containing 0.1% (w/v) photoinitiator LAP at 60° C. Then, either a control peptide or GS18 was added to achieve a final concentration of 0.1 mg/mL. The above mixture was injected into the mold (20 μL/hole) and exposed to ultraviolet irradiation (6.9 W/cm^2, 360-489 nm) for 2 min at room temperature. Once solidified, the materials were carefully detached from the mold and placed on ice for use. • 2.3 Result verification: photographs were captured to depict the morphological characteristics of the polypeptide-modified GelMA after it was separated from the mold.
• 3.1 Sample preparation: the GelMA scaffold was utilized to encapsulate either GS18 or control peptide at a concentration of 0.1 mg/mL, resulting in a total volume of 0.02 cm^3. • 3.2 Animal model: 12-week-old SD male rats (about 320±20 g each) were used. Each group contained 3 rats. Rats were anesthetized with 2% pentobarbital via abdominal injection. The rats were positioned in the prone position. An electric razor was utilized to remove fur from the cranial region. Following this, the surgical sites were thoroughly cleansed with iodophor for disinfection. To maintain a sterile condition, disposable towels were carefully placed over the surgical regions. Starting from the nasal bone, a longitudinal skin incision of 1.5-2.0 cm was made along the midline of the top of the head. The subcutaneous tissue was gently separated with the handle of a surgical knife. The periosteum was meticulously incised along the sagittal suture of the cranium and subsequently separated to fully expose the parietal bone, occipital bone, and part of the frontal bone. Bilateral full-thickness circular calvarial defects (diameter=5 mm) were generated using a trephine. Sterilized materials were implanted into the defect sites. The experimental group was implanted with GS18-modified GelMA, While the control group was implanted with control peptide-modified GelMA. Finally, the skin was reset, sutured, and disinfected. • 3.3 Tissue slices: after 4 weeks, the rats were sacrificed. […] The paraffin tissue slices were heated at 65° C., dewaxed, hydrated with xylene and gradient ethanol, and stained with H&E and Goldner's trichrome staining for histological evaluation.

[1] = tested on: osteogenesis-oriented BMSCs (pre-osteoblasts); experiment: In vitro osteogenic differentiation, Von kossa staining; assay type: cell-based, C57BL/6 male mice; conditions: 5 days OM pretreatment, then 14 days peptide-containing OM, compared with the control peptide
Procedure: • 1.1 Cell culture: primary bone mesenchymal stem cells (BMSCs) extracted from the long bones of 3-week-old C57BL/6 male mice were selected, cultured at 37° C. in a humidified atmosphere with 5% CO2, and inoculated into a 24-well plate with 30000 cells/well. α-MEM supplemented with 5% FBS, 1% penicillin-streptomycin, […], 10 mM β-glycerophosphate, and 50 μg/mL L-ascorbic acid was used as the osteogenic medium (OM) for osteogenic induction. • 1.2 Cell induction: BMSCs were pretreated with OM for 5 days to achieve a determined osteogenic precursor cell state, followed by ongoing induction with peptide-containing OM for another 14 days. The experimental group used OM added with GS18, and the control group used OM added with the control peptide. GS18 was synthesized using a solid-phase polypeptide synthesis and was purified by HPLC (purity=96.59%). The amino acid sequence of the control peptide was shown as SEQ ID NO: 2, i.e. CKPLRLSKEEHPLK. The control peptide also adopted a solid-phase polypeptide synthesis method and used HPLC to purify products (purity=96.15%). […] The integrated density of calcium nodes (IntDen) and the percent of the calcified area to the total area (Area %) from five random areas were measured by Fiji. **p<0.01.

Wnt/β-catenin pathway = experiment: Immunofluorescence staining of active β-catenin and osteocalcin in calvarial defects; assay type: in vivo, SD male rats; conditions: 4 weeks after implantation
Procedure: • 3.1 Sample preparation: the GelMA scaffold was utilized to encapsulate either GS18 or control peptide at a concentration of 0.1 mg/mL, resulting in a total volume of 0.02 cm^3. • 3.2 Animal model: 12-week-old SD male rats (about 320±20 g each) were used. Each group contained 3 rats. Rats were anesthetized with 2% pentobarbital via abdominal injection. The rats were positioned in the prone position. An electric razor was utilized to remove fur from the cranial region. Following this, the surgical sites were thoroughly cleansed with iodophor for disinfection. To maintain a sterile condition, disposable towels were carefully placed over the surgical regions. Starting from the nasal bone, a longitudinal skin incision of 1.5-2.0 cm was made along the midline of the top of the head. The subcutaneous tissue was gently separated with the handle of a surgical knife. […]
• 4.1 Antigen repair: the paraffin slices prepared in Embodiment 3.3 were heated at 65° C., dewaxed, hydrated with xylene and gradient ethanol, and immersed in the antigen repair buffer at 100° C. for 40 min. […] Subsequently, the sections were washed with PBS three times for 15 min each time and sealed by the anti-fluorescence quencher. • 4.3 Result verification: images of immunofluorescence staining were acquired using a confocal laser scanning microscope (CLSM, FV3000, Olympus, Japan).

## CKPLRLSKEEHPLK (The sequence is synthetized) [control peptide, control peptide made by solid-phase polypeptide synthesis, reference compound]
Calvarial defects
  Goldner's trichrome staining: cellular growth / cell infiltration in the defect (FIG. 4): conspicuous paucity of cellular growth within the central region of the defect
  H&E staining: cellular growth / cell recruitment in the defect (FIG. 3): noticeable lack of cellular growth in the central region of the defect

## GPGGDKCRCVFHWVCCYVS (GPGGDKCRCVFHWCCYVS; The sequence is synthetized) [GS18]
Calvarial defects
  H&E staining: cellular growth / cell recruitment in the defect (FIG. 3): capacity to attract and recruit cells into the scaffolds
  H&E staining: fiber mineralization in the defect (FIG. 3): high degree of fiber mineralization
[1]
  formation of calcium deposits of pre-osteoblasts (FIG. 1B): significantly increased
  maturation of calcium deposits of pre-osteoblasts (FIG. 1C): significantly increased
Wnt/β-catenin pathway
  expression of Ocn in the defect area (FIG. 5): robust and widespread
Wnt/β-catenin pathway; compared to non-peptide-modified GelMA
  expression of active β-Catenin in newly formed tissues of the calvarial defects (FIG. 5): significantly enhanced

Source: patent US11912793B2, “Polypeptide and application thereof in bone repair” (SICHUAN UNIVERSITY, priority 2022, dated 2024)
